Tested on: Arg-1
Assay: Arg-1 expression in bone marrow monocyte-derived macrophages differentiated in vitro, flow cytometry
Format: cell-based, mouse
Procedure: (B) Mice were administered K/B×N serum on days 0, 2 and 9 then on day 12 they were treated 2×10^6 PKH67-labelled monocytes isolated from arthritic mice and incubated with either vehicle (PBS+0.1% EtOH) or 1 nM MCTR3 for 90 min via i.v injection. After 10 days joints were harvested, cells were liberated that the expression of Arg-1 was evaluated in PKH67^+CD64^+ cells using flow cytometry. Results are from n=10 mice per group. Statistical differences were evaluated using a Mann-Whitney U test. (C) Inflammatory arthritis was induced in C57BL/6 mice and bone marrow-derived monocytes were isolated and treated as in A and Arg-1 expression was evaluated using flow cytometry. Results are mean±SEM and expressed as percentage change from cells incubated with vehicle alone. n=8 per group from two separate experiments. Statistical differences were evaluated using one-sample Wilcoxon signed rank test. (D) Mice were given K/B×N serum (via i.p. injection) on days 0, 2 and 9. […] On day 22, joints were collected and the expression of Arg-1 in PKH67^+ CD64^+ cells was evaluated using flow cytometry. Results are mean±SEM and expressed as percentage change from vehicle group. n=5 mice per group. Statistics differences were evaluated Mann-Whitney U test. […]

Row | SMILES | Arg-1 expression in MDM differentiated in vitro (1 nM MCTR3 for 24 hours on monocytes) | ability of MCTR3 to upregulate Arg-1 in vitro (monocytes incubated with 10 μM RG108 for 45 min before 1 nM MCTR3)
1 | CC/C=C\C/C=C\C[C@H](O)[C@@H](/C=C/C=C/C=C\C/C=C\CCC(=O)O)SC[C@H](N)C(=O)O [MCTR3, 13R-cysteinyl, 14S-hydroxy-4Z, 7Z, 9E, 11E, 13R, 14S, 16Z, 19Z-docosahexaenoic acid] | upregulate | –
2 | O=C(O)C(Cc1c[nH]c2ccccc12)N1C(=O)c2ccccc2C1=O (centres unmarked) [RG108] | – | reversed

Reference: patent US20240269170A1, “Treatment of Inflammatory Conditions or Diseases” (Queen Mary University of London, priority 2021, published 2024)
